Active and inactive are the calls of the source. The rule behind the calls is not given here.
How the values were obtained:
[1] = molecular target: T1, Glucagon-like peptide 1 receptor (Mus musculus) (UniProt O35659); experiment: Activation of mouse GLP-1R
T1 sequence (whole entry): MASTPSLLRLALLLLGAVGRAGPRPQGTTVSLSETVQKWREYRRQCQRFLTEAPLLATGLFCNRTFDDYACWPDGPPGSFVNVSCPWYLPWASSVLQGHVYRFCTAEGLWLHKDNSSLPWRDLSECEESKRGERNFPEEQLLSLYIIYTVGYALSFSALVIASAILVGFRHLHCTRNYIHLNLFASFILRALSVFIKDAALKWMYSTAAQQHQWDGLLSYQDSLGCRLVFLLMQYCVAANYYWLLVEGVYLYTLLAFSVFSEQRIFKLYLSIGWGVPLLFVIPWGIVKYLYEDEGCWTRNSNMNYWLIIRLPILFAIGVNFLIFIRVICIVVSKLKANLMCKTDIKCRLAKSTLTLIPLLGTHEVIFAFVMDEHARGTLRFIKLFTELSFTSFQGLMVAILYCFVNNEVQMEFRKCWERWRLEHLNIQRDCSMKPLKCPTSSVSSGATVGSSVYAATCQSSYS

[2] = AUC in ICR mouse at 5 mg/kg, po by LC-MS/MS analysis; format: ADME, organism-based; conditions: in vivo
[3] = Drug distribution in rat intestine at 5 mg/kg, po; format: ADME, organism-based; conditions: in vivo
[4] = molecular target: T2, Glucagon-like peptide 1 receptor (Homo sapiens, UniProt P43220); experiment: Agonist activity at GLP-1R (unknown origin) assessed as beta-arrestin 1 recruitment; format: functional
T2 sequence (P43220 whole entry): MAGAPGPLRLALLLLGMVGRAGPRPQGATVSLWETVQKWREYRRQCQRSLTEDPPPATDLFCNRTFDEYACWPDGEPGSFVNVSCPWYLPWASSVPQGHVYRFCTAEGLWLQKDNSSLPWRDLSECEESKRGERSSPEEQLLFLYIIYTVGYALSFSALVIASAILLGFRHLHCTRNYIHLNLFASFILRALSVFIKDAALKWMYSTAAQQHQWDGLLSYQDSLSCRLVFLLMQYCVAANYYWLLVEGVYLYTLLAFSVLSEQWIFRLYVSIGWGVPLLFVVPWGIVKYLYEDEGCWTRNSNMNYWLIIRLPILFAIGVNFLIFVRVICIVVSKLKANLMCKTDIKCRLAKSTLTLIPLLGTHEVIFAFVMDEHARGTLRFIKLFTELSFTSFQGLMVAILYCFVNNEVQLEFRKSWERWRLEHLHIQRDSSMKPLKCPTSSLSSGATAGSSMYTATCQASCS

[5] = molecular target: T2, Glucagon-like peptide 1 receptor; experiment: Activation of human GLP-1R; conditions: filed as activator
Cytochrome P450 2C8 = molecular target: T3, Cytochrome P450 2C8 (Homo sapiens, UniProt P10632); experiment: Inhibition of CYP2C8 in human liver microsomes using paclitaxel as substrate preincubated for 5 mins followed by NADPH addition and measured after 20 mins by LC-MS/MS analysis; format: ADME, Microsome
T3 sequence (P10632 whole entry): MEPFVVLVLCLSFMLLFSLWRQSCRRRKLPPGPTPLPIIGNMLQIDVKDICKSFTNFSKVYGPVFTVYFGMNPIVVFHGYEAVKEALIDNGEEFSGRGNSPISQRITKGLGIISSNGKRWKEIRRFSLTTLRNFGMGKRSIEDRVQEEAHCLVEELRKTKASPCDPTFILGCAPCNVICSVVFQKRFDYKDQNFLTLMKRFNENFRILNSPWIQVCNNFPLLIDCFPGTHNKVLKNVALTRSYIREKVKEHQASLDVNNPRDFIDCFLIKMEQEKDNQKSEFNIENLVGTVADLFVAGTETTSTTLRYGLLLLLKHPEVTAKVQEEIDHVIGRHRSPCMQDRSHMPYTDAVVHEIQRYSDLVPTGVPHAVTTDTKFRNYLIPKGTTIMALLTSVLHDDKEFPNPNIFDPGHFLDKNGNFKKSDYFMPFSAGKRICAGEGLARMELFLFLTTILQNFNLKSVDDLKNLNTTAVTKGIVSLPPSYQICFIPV

Macaca mulatta = species on record: Macaca mulatta; experiment: Activation of monkey GLP-1R; conditions: filed as activator
[6] = Drug distribution in rat liver at 5 mg/kg, po; format: ADME, organism-based; conditions: in vivo
[7] = molecular target: T4, 5-hydroxytryptamine receptor 2A (Homo sapiens, UniProt P28223); experiment: Inhibition of 5HT2A (unknown origin)
T4 sequence (P28223 whole entry): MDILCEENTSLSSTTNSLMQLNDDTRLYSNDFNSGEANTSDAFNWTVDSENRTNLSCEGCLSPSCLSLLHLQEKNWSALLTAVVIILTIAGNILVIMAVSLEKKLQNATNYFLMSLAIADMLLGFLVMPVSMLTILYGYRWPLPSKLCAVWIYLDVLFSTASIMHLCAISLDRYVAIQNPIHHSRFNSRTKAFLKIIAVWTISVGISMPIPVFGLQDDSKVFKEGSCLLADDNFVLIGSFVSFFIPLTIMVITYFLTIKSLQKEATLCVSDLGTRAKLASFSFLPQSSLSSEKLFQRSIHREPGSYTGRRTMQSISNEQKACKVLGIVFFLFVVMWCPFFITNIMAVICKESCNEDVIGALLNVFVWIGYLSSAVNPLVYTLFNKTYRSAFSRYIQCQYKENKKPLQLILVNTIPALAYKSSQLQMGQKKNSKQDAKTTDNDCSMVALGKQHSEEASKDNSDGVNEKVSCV

[8] = molecular target: T5, Glucagon-like peptide 1 receptor (Rattus norvegicus) (UniProt P32301); experiment: Activation of rat GLP-1R
T5 sequence (whole entry): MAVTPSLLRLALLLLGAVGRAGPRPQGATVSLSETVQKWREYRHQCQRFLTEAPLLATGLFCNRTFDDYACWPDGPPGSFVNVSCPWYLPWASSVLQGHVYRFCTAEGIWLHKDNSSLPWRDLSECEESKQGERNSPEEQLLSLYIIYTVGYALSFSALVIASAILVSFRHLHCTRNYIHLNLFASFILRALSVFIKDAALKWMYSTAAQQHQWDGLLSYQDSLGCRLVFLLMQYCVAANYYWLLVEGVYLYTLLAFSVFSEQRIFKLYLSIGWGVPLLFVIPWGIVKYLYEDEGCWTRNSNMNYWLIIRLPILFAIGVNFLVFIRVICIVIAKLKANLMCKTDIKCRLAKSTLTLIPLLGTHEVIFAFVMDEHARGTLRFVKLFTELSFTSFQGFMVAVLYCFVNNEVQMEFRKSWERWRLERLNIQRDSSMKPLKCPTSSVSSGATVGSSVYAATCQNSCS

[9] = molecular target: T2, Glucagon-like peptide 1 receptor; experiment: Agonist activity at GLP-1R (unknown origin) assessed as beta-arrestin 2 recruitment; format: functional
hERG (KCNH2) [10] = molecular target: T6, hERG (KCNH2) (Homo sapiens, UniProt Q12809); experiment: Inhibition of human ERG at 10 uM by whole cell patch clamp method relative to control; format: toxicity
T6 sequence (Q12809 whole entry): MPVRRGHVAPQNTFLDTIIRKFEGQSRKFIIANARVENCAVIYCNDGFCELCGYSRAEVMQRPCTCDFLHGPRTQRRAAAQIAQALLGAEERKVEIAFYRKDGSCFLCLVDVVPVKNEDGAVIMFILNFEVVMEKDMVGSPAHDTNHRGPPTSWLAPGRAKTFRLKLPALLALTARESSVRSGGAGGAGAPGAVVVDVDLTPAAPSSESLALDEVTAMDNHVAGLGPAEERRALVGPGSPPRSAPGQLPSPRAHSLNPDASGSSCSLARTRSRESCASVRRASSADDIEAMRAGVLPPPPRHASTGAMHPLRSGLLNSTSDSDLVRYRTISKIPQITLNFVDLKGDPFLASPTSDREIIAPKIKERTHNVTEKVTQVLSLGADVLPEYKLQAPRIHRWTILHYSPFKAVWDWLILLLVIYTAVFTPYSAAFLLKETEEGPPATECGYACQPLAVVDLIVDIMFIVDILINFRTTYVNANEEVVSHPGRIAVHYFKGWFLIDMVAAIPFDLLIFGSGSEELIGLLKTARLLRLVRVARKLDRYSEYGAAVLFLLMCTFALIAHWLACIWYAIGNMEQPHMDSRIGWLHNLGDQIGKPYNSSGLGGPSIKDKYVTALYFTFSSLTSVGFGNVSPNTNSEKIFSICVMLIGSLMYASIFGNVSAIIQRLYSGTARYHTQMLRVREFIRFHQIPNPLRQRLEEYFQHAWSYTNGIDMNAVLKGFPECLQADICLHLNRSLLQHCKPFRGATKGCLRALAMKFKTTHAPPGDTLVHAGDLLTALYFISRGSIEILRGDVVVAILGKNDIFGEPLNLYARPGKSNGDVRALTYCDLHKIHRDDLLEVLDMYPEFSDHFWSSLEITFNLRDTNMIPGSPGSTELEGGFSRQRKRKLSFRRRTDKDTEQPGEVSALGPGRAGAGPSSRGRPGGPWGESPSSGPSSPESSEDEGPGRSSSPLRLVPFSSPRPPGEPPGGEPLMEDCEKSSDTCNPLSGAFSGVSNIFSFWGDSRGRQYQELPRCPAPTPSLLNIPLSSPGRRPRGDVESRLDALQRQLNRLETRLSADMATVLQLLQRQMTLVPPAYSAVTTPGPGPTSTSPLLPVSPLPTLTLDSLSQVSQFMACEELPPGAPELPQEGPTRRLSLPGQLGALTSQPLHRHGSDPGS

[11] = Efflux ratio of permeability across basolateral to apical side over apical to basolateral side in human Caco-2; format: ADME, cell-based
[12] = Drug distribution in rat stomach at 5 mg/kg, po; format: ADME, organism-based; conditions: in vivo
hERG (KCNH2) [13] = molecular target: T6, hERG (KCNH2); experiment: Inhibition of human ERG at 1 uM by whole cell patch clamp method relative to control; format: toxicity
[14] = molecular target: T4, 5-hydroxytryptamine receptor 2A; experiment: Inhibition of 5HT2A (unknown origin) relative to control; conditions: concentration not given here
[15] = AUC in rat at 2 mg/kg, iv by LC-MS/MS analysis; format: ADME, organism-based; conditions: in vivo
[16] = Cmax in cynomolgus monkey at 20 mg/kg, po; format: ADME, organism-based, Macaca fascicularis; conditions: in vivo
[17] = molecular target: T7, 5-hydroxytryptamine receptor 1A (Homo sapiens, UniProt P08908); experiment: Inhibition of 5HT1A (unknown origin)
T7 sequence (P08908 whole entry): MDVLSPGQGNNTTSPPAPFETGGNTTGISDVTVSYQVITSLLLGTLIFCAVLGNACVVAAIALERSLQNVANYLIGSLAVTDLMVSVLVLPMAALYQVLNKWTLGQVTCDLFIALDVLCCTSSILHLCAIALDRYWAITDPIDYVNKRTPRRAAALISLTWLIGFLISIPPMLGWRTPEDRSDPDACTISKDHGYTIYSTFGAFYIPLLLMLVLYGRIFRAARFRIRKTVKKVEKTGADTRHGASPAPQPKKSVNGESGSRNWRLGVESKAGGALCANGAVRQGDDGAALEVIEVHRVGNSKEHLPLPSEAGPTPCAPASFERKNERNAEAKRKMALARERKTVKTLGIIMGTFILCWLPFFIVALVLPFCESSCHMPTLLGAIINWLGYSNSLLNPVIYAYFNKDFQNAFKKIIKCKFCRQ

[18] = molecular target: T8, 5-hydroxytryptamine receptor 1A (Homo sapiens) (UniProt P08908); experiment: Inhibition of 5HT1A (unknown origin) relative to control; conditions: concentration not given here
T8 sequence (whole entry): T7 sequence (P08908 whole entry)

Row | Activity [1] | Drug uptake [3] | Activity [4] | Activity [5] | Activity (Macaca mulatta) | Drug uptake [6] | IC50 [7] | Activity [8] | Activity [9] | efflux ratio [11] | Drug uptake [12] | inhibition [14] | Structure (SMILES) | AUC [2] | IC50 (Cytochrome P450 2C8) | inhibition at 10 µM (hERG (KCNH2) [10]) | inhibition at 1 µM (hERG (KCNH2) [13]) | AUC [15] | Cmax [16] | IC50 [17] | inhibition [18]
1 | inactive | Active | inactive | Active | Active | Active | 8760 nM | inactive | inactive | 5.26 | Active | 57.8% | O=C(O)c1ccc2nc(CN3CCC(c4cccc(OCc5ccc(C6COC6)cc5F)n4)CC3)n(C[C@@H]3CCO3)c2c1 | 3000 ng·h/mL | 220 nM | 40.7% | 3.75% | 530 ng·h/mL |  |  | 
2 |  |  |  |  |  |  |  |  |  |  |  |  | N#Cc1ccc(COc2cccc(C3CCN(Cc4nc5ccc(C(=O)O)cc5n4C[C@@H]4CCO4)CC3)n2)c(F)c1 [DANUGLIPRON] | 2280 ng·h/mL | 1250 nM |  |  | 520 ng·h/mL | 163 µM | 2420 nM | 86.9%

Source: ChEMBL document CHEMBL5579877, “Design and Evaluation of 3-Phenyloxetane Derivative Agonists of the Glucagon-Like Peptide-1 Receptor” (J Med Chem, 2024)
